For assay [1], the target named is T1, Proteasome Macropain subunit (Saccharomyces cerevisiae S288c) (UniProt P22141).
T1 sequence (whole entry): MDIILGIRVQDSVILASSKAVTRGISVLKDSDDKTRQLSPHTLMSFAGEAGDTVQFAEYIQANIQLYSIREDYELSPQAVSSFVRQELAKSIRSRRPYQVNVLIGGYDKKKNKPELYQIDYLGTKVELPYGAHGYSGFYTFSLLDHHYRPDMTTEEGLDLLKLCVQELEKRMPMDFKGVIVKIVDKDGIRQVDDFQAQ
The experiment in a line: Inhibition of trypsin like activity of yeast 20S proteasome at 80 uM.

The target in assay [2] is T2, Proteasome Macropain subunit PRE2 (Saccharomyces cerevisiae S288c) (UniProt P30656).
T2 sequence (whole entry): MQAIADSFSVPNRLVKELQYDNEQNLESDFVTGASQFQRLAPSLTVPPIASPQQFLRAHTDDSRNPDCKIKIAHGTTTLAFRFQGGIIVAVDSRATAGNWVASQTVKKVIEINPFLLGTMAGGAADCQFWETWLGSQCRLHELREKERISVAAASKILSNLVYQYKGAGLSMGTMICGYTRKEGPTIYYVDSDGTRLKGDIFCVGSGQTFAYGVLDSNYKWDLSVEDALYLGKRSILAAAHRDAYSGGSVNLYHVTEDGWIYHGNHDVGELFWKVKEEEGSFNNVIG
In words: Inhibition of chymotrypsin like activity of yeast 20S proteasome at 80 uM.

For assay [3], the target named is T3, Proteasome component C5 (Saccharomyces cerevisiae S288c) (UniProt P23724).
T3 sequence (whole entry): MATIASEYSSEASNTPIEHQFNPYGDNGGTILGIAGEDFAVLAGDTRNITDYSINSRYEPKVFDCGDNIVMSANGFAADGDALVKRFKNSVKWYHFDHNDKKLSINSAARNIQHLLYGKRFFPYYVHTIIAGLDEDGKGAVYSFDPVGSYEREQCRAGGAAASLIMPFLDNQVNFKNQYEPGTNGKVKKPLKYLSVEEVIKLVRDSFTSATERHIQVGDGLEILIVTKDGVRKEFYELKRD
The experiment in a line: Inhibition of post acid activity of yeast 20S proteasome at 80 uM.

Assay [4] deals with T4, Proteasome Macropain subunit PRE2 (Saccharomyces cerevisiae S288c, UniProt P30656).
T4 sequence (P30656 whole entry): T2 sequence (whole entry)
In words: Inhibition of chymotrypsin like activity of yeast 20S proteasome.

For assay [5], the target named is T5, Proteasome Macropain subunit (Saccharomyces cerevisiae S288c, UniProt P22141).
T5 sequence (P22141 whole entry): T1 sequence (whole entry)
The experiment in a line: Inhibition of trypsin like activity of yeast 20S proteasome.

Another assay addresses T6, Proteasome component C5 (Saccharomyces cerevisiae S288c, UniProt P23724).
T6 sequence (P23724 whole entry): T3 sequence (whole entry)
In words: Inhibition of post acid activity of yeast 20S proteasome.

Assay [6] concerns the target T3, Proteasome component C5 (Saccharomyces cerevisiae S288c). The experiment in a line: Activation of post acid activity of yeast 20S proteasome.
Assay [7] concerns the target T1, Proteasome Macropain subunit (Saccharomyces cerevisiae S288c). In words: Inhibition of trypsin like activity of yeast 20S proteasome at 625 uM.

pKi: −log10 of the molar value. Residues, ends and D or L forms follow the SMILES beside them. Bounds are passed on as bounds.

Broadly, the inhibition is how much of the control response was suppressed. With `CCCCCCCCCCCCCCC(N)C(=O)O` (stereo not drawn), the inhibition in assay [1], in assay [2] and in assay [3] was less than 10% each time.
For orientation: pKi means −log10 of the Ki, conventionally taken in molar units. Lower therefore signals a high Ki. For the compound `CCCCCC(=O)N[C@H](C(=O)N[C@H](C(=O)N[C@H](C(=O)N[C@@H](Cc1ccccc1)C(=O)N[C@@H](CC(=O)O)C(=O)N[C@@H](Cc1ccc(O)cc1)C(=O)O)[C@@H](C)O)[C@@H](C)CC)[C@@H](C)O` (HELM PEPTIDE1{[CCCCCC(=O)[*:2]].T.I.T.F.D.Y}$$$$V2.0), the inhibition in assay [1] and in assay [3] was less than 10% each time. The pKi in assay [4] is 4.47.
`CCCCCC(=O)N[C@H](C(=O)N[C@H](C(=O)N[C@H](C(=O)N[C@@H](Cc1ccccc1)C(=O)N[C@@H](CCCCN)C(=O)N[C@@H](Cc1ccccc1)C(=O)O)[C@@H](C)O)C(C)C)[C@@H](C)O` (HELM PEPTIDE1{[CCCCCC(=O)[*:2]].T.V.T.F.K.F}$$$$V2.0): the inhibition in assay [1] and in assay [3] was less than 10% in each case. This compound also had a pKi in assay [4] of 4.37.
Take `CCCCCC(=O)N[C@H](C(=O)N[C@H](C(=O)N[C@H](C(=O)N[C@@H](Cc1ccc(O)cc1)C(=O)N[C@@H](CCCCN)C(=O)N[C@@H](Cc1ccccc1)C(=O)O)[C@@H](C)O)C(C)C)[C@@H](C)O` (HELM PEPTIDE1{[CCCCCC(=O)[*:2]].T.V.T.Y.K.F}$$$$V2.0): the negative-log Ki (pKi) in assay [4] was 4.10; in assay [5], 3.50. For the same compound, in assay [3], the inhibition was less than 10%.
`CCCCCC(=O)N[C@@H](Cc1ccc(O)cc1)C(=O)N[C@@H](CCC(=O)O)C(=O)N[C@@H](CC(C)C)C(=O)O` (HELM PEPTIDE1{[CCCCCC(=O)[*:2]].Y.E.L}$$$$V2.0): the negative logarithm of the Ki (pKi) at Proteasome component C5 was 4.23; in assay [4], less than 4.10. In assay [1], this compound yielded an inhibition of less than 10%.
As to `CCCCCCCC(=O)N[C@H](C(=O)N[C@H](C(=O)N[C@H](C(=O)N[C@@H](Cc1ccccc1)C(=O)N[C@@H](CC(=O)O)C(=O)N[C@@H](Cc1ccc(O)cc1)C(=O)O)[C@@H](C)O)[C@@H](C)CC)[C@@H](C)O` (HELM PEPTIDE1{[CCCCCCCC(=O)[*:2]].T.I.T.F.D.Y}$$$$V2.0), the negative-log Ki (pKi) is less than 4.10 on Proteasome component C5 and 4.37 in assay [4]. Besides, in assay [1], the inhibition was less than 10%.
`CCCCCCCC(=O)N[C@H](C(=O)N[C@H](C(=O)N[C@H](C(=O)N[C@@H](Cc1ccccc1)C(=O)N[C@@H](CCCCN)C(=O)N[C@@H](Cc1ccccc1)C(=O)O)[C@@H](C)O)C(C)C)[C@@H](C)O` (HELM PEPTIDE1{[CCCCCCCC(=O)[*:2]].T.V.T.F.K.F}$$$$V2.0): in assay [4], the negative logarithm of the Ki (pKi) is less than 4.10.
Regarding `CCCCCCCCCC(=O)N[C@H](C(=O)N[C@H](C(=O)N[C@H](C(=O)N[C@@H](Cc1ccccc1)C(=O)N[C@@H](CC(=O)O)C(=O)N[C@@H](Cc1ccc(O)cc1)C(=O)O)[C@@H](C)O)[C@@H](C)CC)[C@@H](C)O` (HELM PEPTIDE1{[CCCCCCCCCC(=O)[*:2]].T.I.T.F.D.Y}$$$$V2.0), the pKi in assay [4] is 4.43.
For the compound `CCCCCCCCCC(=O)N[C@H](C(=O)N[C@H](C(=O)N[C@H](C(=O)N[C@@H](Cc1ccccc1)C(=O)N[C@@H](CCCCN)C(=O)N[C@@H](Cc1ccccc1)C(=O)O)[C@@H](C)O)C(C)C)[C@@H](C)O` (HELM PEPTIDE1{[CCCCCCCCCC(=O)[*:2]].T.V.T.F.K.F}$$$$V2.0), the pKi in assay [4] was 4.55.
Turning to `CCCCCCCCCC(=O)N[C@H](C(=O)N[C@H](C(=O)N[C@H](C(=O)N[C@@H](Cc1ccc(O)cc1)C(=O)N[C@@H](CCCCN)C(=O)N[C@@H](Cc1ccccc1)C(=O)O)[C@@H](C)O)C(C)C)[C@@H](C)O` (HELM PEPTIDE1{[CCCCCCCCCC(=O)[*:2]].T.V.T.Y.K.F}$$$$V2.0), the inhibition in assay [1] was less than 10%. In assay [4], this compound had a negative-log Ki (pKi) of 4.14. This compound also gave an Activity in assay [6] of 1.2.
The compound `CCCCCCCCCC(=O)N[C@@H](Cc1ccc(O)cc1)C(=O)N[C@@H](CCC(=O)O)C(=O)N[C@@H](CC(C)C)C(=O)O` (HELM PEPTIDE1{[CCCCCCCCCC(=O)[*:2]].Y.E.L}$$$$V2.0) gave a negative-log Ki (pKi) at Proteasome component C5 of 4.14. Also, the inhibition in assay [1] and in assay [2] was less than 10% each time.
Take `CCCCCCCCCCCC(=O)N[C@H](C(=O)N[C@H](C(=O)N[C@H](C(=O)N[C@@H](Cc1ccccc1)C(=O)N[C@@H](CC(=O)O)C(=O)N[C@@H](Cc1ccc(O)cc1)C(=O)O)[C@@H](C)O)[C@@H](C)CC)[C@@H](C)O` (HELM PEPTIDE1{[CCCCCCCCCCCC(=O)[*:2]].T.I.T.F.D.Y}$$$$V2.0): the negative-log Ki (pKi) (at Proteasome component C5; in assay [4]; in assay [5]) was less than 4.10 each time.
With `CCCCCCCCCCCC(=O)N[C@H](C(=O)N[C@H](C(=O)N[C@H](C(=O)N[C@@H](Cc1ccc(O)cc1)C(=O)N[C@@H](CCCCN)C(=O)N[C@@H](Cc1ccccc1)C(=O)O)[C@@H](C)O)C(C)C)[C@@H](C)O` (HELM PEPTIDE1{[CCCCCCCCCCCC(=O)[*:2]].T.V.T.Y.K.F}$$$$V2.0), the values for the pKi in assay [4] and in assay [5] were less than 4.10 and 4.17, respectively. The Activity in assay [6] was 1.2.
In the case of `CCCCCCCCCCCCCC(=O)N[C@H](C(=O)N[C@H](C(=O)N[C@H](C(=O)N[C@@H](Cc1ccc(O)cc1)C(=O)N[C@@H](CCCCN)C(=O)N[C@@H](Cc1ccccc1)C(=O)O)[C@@H](C)O)C(C)C)[C@@H](C)O` (HELM PEPTIDE1{[CCCCCCCCCCCCCC(=O)[*:2]].T.V.T.Y.K.F}$$$$V2.0), in assay [5], the pKi is 4.10. Moreover, the Activity in assay [6] was determined as 1.2.
As to `CCCCCCCCCCCCCCC(N)C(=O)N[C@@H](Cc1ccc(O)cc1)C(=O)N[C@@H](CCC(=O)O)C(=O)N[C@H](C(=O)O)[C@@H](C)O` (stereo partly drawn) (HELM PEPTIDE1{[CCCCCCCCCCCCCCC(N)C(=O)[*:2]].Y.E.T}$$$$V2.0), the figures for the pKi (at Proteasome component C5; in assay [4]) were 5.10 and 5.30, respectively.
On to `CCCCCCCCCCCCCCCC(=O)N[C@@H](Cc1ccccc1)C(=O)N[C@@H](CCCCN)C(=O)N[C@@H](Cc1ccccc1)C(=O)O` (HELM PEPTIDE1{[CCCCCCCCCCCCCCCC(=O)[*:2]].F.K.F}$$$$V2.0), for which the values for the pKi in assay [4] and in assay [5] were 4.52 and less than 4.10, respectively. Besides, the inhibition in assay [3] was less than 10%.
Consider `CCCCCCCCCCCCCCCC(=O)N[C@H](C(=O)N[C@H](C(=O)N[C@H](C(=O)N[C@@H](Cc1ccccc1)C(=O)N[C@@H](CC(=O)O)C(=O)N[C@@H](Cc1ccc(O)cc1)C(=O)O)[C@@H](C)O)[C@@H](C)CC)[C@@H](C)O` (HELM PEPTIDE1{[CCCCCCCCCCCCCCCC(=O)[*:2]].T.I.T.F.D.Y}$$$$V2.0), for which, in assay [1], the inhibition is less than 10%. Further, the negative-log Ki (pKi) in assay [4] was 4.10. Also, the Activity in assay [6] is 1.5.
`CCCCCCCCCCCCCCCC(=O)N[C@@H](Cc1ccc(O)cc1)C(=O)N[C@@H](CC(=O)O)C(=O)N[C@@H](CC(C)C)C(=O)O` (HELM PEPTIDE1{[CCCCCCCCCCCCCCCC(=O)[*:2]].Y.D.L}$$$$V2.0): the pKi is 4.82 at Proteasome component C5, 4.70 in assay [4] and less than 4.10 in assay [5].
The corresponding values for `CCCCCCCCCCCCCCCC(=O)N[C@@H](Cc1ccc(O)cc1)C(=O)N[C@@H](CCC(=O)O)C(=O)N[C@@H](CC(C)C)C(=O)O` (HELM PEPTIDE1{[CCCCCCCCCCCCCCCC(=O)[*:2]].Y.E.L}$$$$V2.0) are 4.82, 4.74 and less than 4.10.
`CCCCCCCCCCCCCCCC(=O)N[C@@H](Cc1ccc(O)cc1)C(=O)N[C@@H](CCC(=O)O)C(=O)N[C@H](C(=O)O)[C@@H](C)O` (HELM PEPTIDE1{[CCCCCCCCCCCCCCCC(=O)[*:2]].Y.E.T}$$$$V2.0): the negative-log Ki (pKi) at Proteasome component C5 is 4.68; in assay [4], 4.70.
As to `CCCCCCCCCCCCCCCC(=O)N[C@@H](Cc1ccc(O)cc1)C(=O)N[C@@H](CCCCN)C(=O)N[C@@H](Cc1ccccc1)C(=O)O` (HELM PEPTIDE1{[CCCCCCCCCCCCCCCC(=O)[*:2]].Y.K.F}$$$$V2.0), the pKi in assay [4] is 4.09; in assay [5], less than 4.10. The compound also had an inhibition in assay [3] of less than 10%.
As for `CCCCCCCCCCCCCCCC(=O)N[C@@H](Cc1ccc(O)cc1)C(=O)N[C@@H](CC(N)=O)C(=O)N[C@H](C(=O)O)[C@@H](C)O` (HELM PEPTIDE1{[CCCCCCCCCCCCCCCC(=O)[*:2]].Y.N.T}$$$$V2.0), the pKi in assay [4] is 4.52.
As for H-TISYDY-OH, the pKi (on Proteasome component C5; in assay [4]) was less than 3.20 in each case. The compound further came in with an inhibition in assay [7] of less than 10%.
For H-TITFDY-OH, the negative logarithm of the Ki (pKi) (at Proteasome component C5; in assay [4]) was less than 3.20 throughout. In addition, in assay [7], the inhibition was less than 10%.
Consider H-TITYDL-OH, for which the values for the negative-log Ki (pKi) (on Proteasome component C5; in assay [4]) were less than 3.20 and 3.21, respectively. This compound registered an inhibition in assay [7] of less than 10%.
H-TVSYKF-OH: the pKi (on Proteasome component C5; in assay [4]) was less than 3.20 throughout. The inhibition in assay [7] is less than 10%.
For H-TVTFKF-OH, the negative-log Ki (pKi) at Proteasome component C5 is 3.83; in assay [4], 3.86. The same compound returned an inhibition in assay [7] of less than 10%.
The corresponding values for H-TVTYKY-OH are less than 3.20, less than 3.20 and less than 10%.
